In US20220387375A1, “TRPV1 ACTIVATION-MODULATING COMPLEX MIXTURES OF CANNABINOIDS AND/OR TERPENES” (GBS Global Biopharma, Inc., priority 2018, published 2022):

How the values were obtained:
[1] = target: T1, TRPV1 (Rattus norvegicus, UniProt O35433); test: Bulk calcium assay (Fluo-4) in HEK-TRPV1 overexpressing cells; format: cell-based; conditions: for mean maximal Ca^2+ signal RFU achieved 0-180 s (SD), TRPV1: bulk calcium assay; for calcium fluxes: dosing concentrations of 30-50 μM; for initiation of a calcium flux: single dose 10 μM, 1 mM external Ca2+
T1 construct: FLAG; expressed in transfected cells
Experimental: Cells were washed and incubated with 0.2 micromolar Fluo-4 for 30 minutes at 37° C. in a standard modified Ringer's solution of the following composition (in mM): NaCl 145, KCl 2.8, CsCl 10, CaCl2 10, MgCl2 2, glucose 10, Hepes·NaOH 10, pH 7.4, 330 mOsm. Cells were transferred to 96-well plates at 50,000 cells/well and stimulated as indicated. Calcium signals were acquired using a Flexstation 3 (Molecular Devices, Sunnydale, USA). Data was analyzed using SoftMax® Pro 5 (Molecular Devices). Where indicated, nomically calcium-free external conditions were achieved by the preparation of 0 mM CaCl2 Ringer solution containing 1 mM EGTA.
The cell culture system described in U.S. patent application Ser. No. 15/986,316 was used to test the TRPV1-mediated calcium response to various terpenes. The HEK293 cell line was stably transfected with the pcDNA6TR (Invitrogen, CA) plasmid (encoding the tetracycline-sensitive TREx repressor protein), and was maintained in DMEM+10% fetal bovine serum (inactivated at 55° C. for 1 h)+2 mM glutamine in humidified 5% CO2 atmosphere at 37° C. Selection pressure on the TRex 293 cells was maintained by continuous culture in 10 μg/ml Blasticidin (Sigma, St Louis, Mo.).
For production of TRex HEK293 cells with inducible expression of TRPV1, parental cells were electroporated with the rat TRPV1 cDNA in the pcDNA4TO vector and clonal cell lines were selected by limiting dilution in the presence of 400 μg/ml zeocin (Invitrogen, CA). TRPV1 expression was induced using 1 μg/ml tetracycline for 16 h at 37° C. Stable lines were screened for inducible protein expression using anti-FLAG Western blot, and inducible expression was confirmed.
Calcium responses mediated by TRPV1 were tested by calcium assay in the cell culture system. Cells were washed and incubated with 0.2 μM fluo-4 acetoxymethyl ester (“Fluo-4”) for 30 minutes at 37° C. in a standard modified Ringer's solution of the following composition (in mM): NaCl 145, KCl2.8, CsCl10, CaCl2 10, MgCl2 2, glucose 10, Hepes·NaOH 10, pH 7.4, 330 mOsm. Cells were transferred to 96-well plates at 50,000 cells/well and stimulated as indicated. The terpenes used were alpha-bisabool, alpha-pinene, myrcene, camphene, linalool, ocimene, humulene, beta-caryophyllene, beta-pinene, limonene, and nerolidol. The terpenes were diluted in DMSO and added to the wells to a final concentration of 10 μM. Vehicle (DMSO) alone was run as a negative control and subtracted from the terpene traces. Calcium signals were acquired using a Flexstation 3 (Molecular Devices, Sunnydale, USA). Data was analyzed using SoftMax® Pro 5 (Molecular Devices).
Calcium responses mediated by TRPA1, TRPM8, TRPV2, and TRPV1 were tested by calcium assay in the cell culture system. Cells were washed and incubated with 0.2 μM fluo-4 acetoxymethyl ester (“Fluo-4”) for 30 minutes at 37° C. in a standard modified Ringer's solution of the following composition (in mM): NaCl 145, KCl 2.8, CsCl 10, CaCl2 10, MgCl2 2, glucose 10, Hepes·NaOH 10, pH 7.4, 330 mOsm. Cells were transferred to 96-well plates at 50,000 cells/well and stimulated with 10 μM myrcene diluted in DMSO. Vehicle (DMSO) was used as a negative control. Vehicle traces were subtracted from the myrcene traces for each cell line.
As shown in FIGS. 16A-H, a variety of cannabinoids were capable of initiating Ca^2+ fluxes in HEK-TRPV1 overexpressing cells, except for cannabigerol and cannabinol. Comparative responses to a single dose (10 μM concentration) of a variety of cannabinoids were made in the presence of 1 mM external Ca^2+, which are population-based, or bulk Ca^2+, measurements with each trace representing averaged triplicates of 100,000 cells per sample. […] For each of the cannabinoid compounds, dose responses at the population level were performed. […] The lower limit of detectable calcium responses in this system varied from 10-100 nM (CBDV, CBGA) to 1-10 μM.

[2] = tested on: WT HEK293; test: Bulk calcium assay in untransfected WT HEK293; format: cell-based; conditions: 10 μM, 1 mM external Ca2+

T1 sequence (O35433 whole entry): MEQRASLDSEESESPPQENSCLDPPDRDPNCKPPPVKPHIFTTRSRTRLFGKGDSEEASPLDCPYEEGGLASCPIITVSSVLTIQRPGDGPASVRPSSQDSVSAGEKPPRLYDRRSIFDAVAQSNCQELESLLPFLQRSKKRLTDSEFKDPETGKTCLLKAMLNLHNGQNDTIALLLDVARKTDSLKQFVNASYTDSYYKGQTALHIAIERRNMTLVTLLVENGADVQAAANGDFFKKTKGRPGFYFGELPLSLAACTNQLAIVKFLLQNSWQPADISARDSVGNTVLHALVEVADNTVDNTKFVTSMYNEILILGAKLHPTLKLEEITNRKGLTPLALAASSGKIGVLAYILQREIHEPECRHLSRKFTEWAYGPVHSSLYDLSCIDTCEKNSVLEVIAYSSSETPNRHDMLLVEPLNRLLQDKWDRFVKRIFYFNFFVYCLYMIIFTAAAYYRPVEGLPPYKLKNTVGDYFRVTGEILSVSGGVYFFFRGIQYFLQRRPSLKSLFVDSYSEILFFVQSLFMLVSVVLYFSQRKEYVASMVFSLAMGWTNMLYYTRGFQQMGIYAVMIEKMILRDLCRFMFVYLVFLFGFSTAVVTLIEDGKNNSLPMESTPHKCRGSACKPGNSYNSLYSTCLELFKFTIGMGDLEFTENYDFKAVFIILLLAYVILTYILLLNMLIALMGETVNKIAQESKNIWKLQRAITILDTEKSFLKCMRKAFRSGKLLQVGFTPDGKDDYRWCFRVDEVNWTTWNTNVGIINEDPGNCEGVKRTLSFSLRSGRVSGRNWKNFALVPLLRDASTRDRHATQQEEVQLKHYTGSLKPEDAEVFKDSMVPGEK

C=C(C)[C@@H]1CCC(C)=C[C@H]1c1c(O)cc(CCCCC)cc1O [CBD, Cannabidiol]
mean maximal Ca^2+ signal RFU achieved 0-180 s (SD), TRPV1 [1]: 11.88 (0.23) RFU

C=C(C)[C@@H]1CCC(C)=C[C@H]1c1c(O)cc(CCC)cc1O [CBDV, Cannabidivarin]
calcium response of WT HEK293 [2]: responding slightly | mean maximal Ca^2+ signal RFU achieved 0-180 s (SD), TRPV1 [1]: 6.51 (0.07) RFU

CCCCCc1cc(O)c(C/C=C(\C)CCC=C(C)C)c(O)c1 [CBG, Cannabigerol]
mean maximal Ca^2+ signal RFU achieved 0-180 s (SD), TRPV1 [1]: 0.41 (0.04) RFU | calcium fluxes [1]: small calcium fluxes | initiation of a calcium flux [1]: did not initiate a calcium flux

CCCCCc1cc(O)c2c(c1)OC(C)(C)c1ccc(C)cc1-2 [CBN, Cannabinol]
mean maximal Ca^2+ signal RFU achieved 0-180 s (SD), TRPV1 [1]: 0.89 (0.08) RFU | calcium fluxes [1]: small and transient calcium transient fluxes | initiation of a calcium flux [1]: did not initiate a calcium flux
